Results: ChEMBL document CHEMBL5226363, “Alkaloids and Coumarins with Adiponectin-Secretion-Promoting Activities from the Leaves of Orixa japonica” (J Nat Prod, 2023)
Active and inactive are the calls of the source. The calls are words filed in the database; no cut-off is given here.

What was measured:
[1] = target: T1, Peroxisome proliferator-activated receptor gamma (Homo sapiens, UniProt P37231); test: Agonist activity at PPARgamma in human BMMSC cells assessed as promotion of adiponectin secretion by measuring increase in adiponectin level in presence of IDX medium by ELISA; assay type: cell-based
T1 sequence (P37231 whole entry): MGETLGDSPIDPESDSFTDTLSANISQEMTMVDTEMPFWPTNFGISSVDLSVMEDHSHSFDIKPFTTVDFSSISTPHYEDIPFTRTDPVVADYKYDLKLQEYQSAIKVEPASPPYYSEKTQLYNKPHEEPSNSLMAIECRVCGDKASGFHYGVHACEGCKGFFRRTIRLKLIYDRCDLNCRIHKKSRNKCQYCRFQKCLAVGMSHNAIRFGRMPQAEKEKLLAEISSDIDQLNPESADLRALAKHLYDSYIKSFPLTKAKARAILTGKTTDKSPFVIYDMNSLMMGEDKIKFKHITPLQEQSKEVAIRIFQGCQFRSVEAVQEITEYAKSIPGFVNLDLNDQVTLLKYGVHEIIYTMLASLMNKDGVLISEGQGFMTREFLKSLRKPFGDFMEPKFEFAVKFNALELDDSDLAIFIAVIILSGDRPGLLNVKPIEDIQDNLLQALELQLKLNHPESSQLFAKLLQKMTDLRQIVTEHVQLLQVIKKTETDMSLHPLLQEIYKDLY

Mesenchymal stem cells = test: Cytotoxicity against human BMMSC cells assessed as reduction in cell viability at 10 uM incubated for 72 hrs by CCK8 assay; assay type: toxicity, cell-based
[2] = target: T2, Peroxisome proliferator-activated receptor alpha (Homo sapiens) (UniProt Q07869); test: Displacement of fluormone pan-PPARgreen from GST-tagged human PPARalpha ligand binding domain at 10 uM by LanthaScreen TR-FRET competitive binding assay
T2 sequence (whole entry): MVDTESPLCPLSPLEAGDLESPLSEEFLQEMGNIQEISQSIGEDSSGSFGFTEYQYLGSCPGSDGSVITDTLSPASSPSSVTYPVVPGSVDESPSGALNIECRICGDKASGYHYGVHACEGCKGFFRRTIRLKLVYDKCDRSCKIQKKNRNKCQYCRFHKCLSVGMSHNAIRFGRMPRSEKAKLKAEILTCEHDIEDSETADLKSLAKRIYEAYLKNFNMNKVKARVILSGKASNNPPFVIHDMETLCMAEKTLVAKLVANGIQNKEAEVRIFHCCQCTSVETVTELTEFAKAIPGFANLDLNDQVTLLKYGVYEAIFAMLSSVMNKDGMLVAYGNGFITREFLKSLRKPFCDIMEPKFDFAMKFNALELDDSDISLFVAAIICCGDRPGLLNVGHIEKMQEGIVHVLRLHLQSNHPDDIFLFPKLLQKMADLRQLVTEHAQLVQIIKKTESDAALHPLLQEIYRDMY

[3] = target: T3, Peroxisome proliferator-activated receptor delta (Homo sapiens) (UniProt Q03181); test: Displacement of fluormone pan-PPARgreen from GST-tagged human PPARdelta ligand binding domain at 10 uM by LanthaScreen TR-FRET competitive binding assay
T3 sequence (whole entry): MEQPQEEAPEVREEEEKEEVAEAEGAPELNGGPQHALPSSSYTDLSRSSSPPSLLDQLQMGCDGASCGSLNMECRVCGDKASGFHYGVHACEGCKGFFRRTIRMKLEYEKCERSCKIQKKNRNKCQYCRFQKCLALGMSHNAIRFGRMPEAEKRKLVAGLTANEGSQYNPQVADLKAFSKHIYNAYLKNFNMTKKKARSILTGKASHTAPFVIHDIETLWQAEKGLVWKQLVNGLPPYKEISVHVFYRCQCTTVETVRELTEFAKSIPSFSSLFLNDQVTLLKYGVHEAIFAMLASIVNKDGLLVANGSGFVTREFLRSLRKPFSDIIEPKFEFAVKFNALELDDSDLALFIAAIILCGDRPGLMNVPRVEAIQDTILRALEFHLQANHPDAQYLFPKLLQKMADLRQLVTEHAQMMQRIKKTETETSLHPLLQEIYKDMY

[4] = target: T4, Oxysterols receptor LXR-beta (Homo sapiens) (UniProt P55055); test: Agonist activity at GST-tagged LXR-beta ligand binding domain (unknown origin) at 10 uM LanthaScreen TR-FRET Coactivator assay
T4 sequence (whole entry): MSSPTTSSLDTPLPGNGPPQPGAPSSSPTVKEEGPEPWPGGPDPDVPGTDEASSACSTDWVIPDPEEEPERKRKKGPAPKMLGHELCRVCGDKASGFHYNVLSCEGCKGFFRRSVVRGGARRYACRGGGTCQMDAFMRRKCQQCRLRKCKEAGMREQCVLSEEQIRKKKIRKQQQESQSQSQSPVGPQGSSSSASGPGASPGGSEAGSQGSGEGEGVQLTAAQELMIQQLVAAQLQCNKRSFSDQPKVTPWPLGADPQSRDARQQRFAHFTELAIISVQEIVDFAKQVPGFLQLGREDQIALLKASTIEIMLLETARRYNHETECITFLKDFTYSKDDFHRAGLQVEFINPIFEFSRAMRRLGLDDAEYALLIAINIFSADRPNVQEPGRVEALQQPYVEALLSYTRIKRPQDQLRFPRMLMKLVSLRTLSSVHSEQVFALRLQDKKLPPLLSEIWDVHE

[5] = target: T5, Bile acid receptor (Homo sapiens) (UniProt Q96RI1); test: Agonist activity at GST-tagged FXR ligand binding domain (unknown origin) at 10 uM LanthaScreen TR-FRET Coactivator assay
T5 sequence (whole entry): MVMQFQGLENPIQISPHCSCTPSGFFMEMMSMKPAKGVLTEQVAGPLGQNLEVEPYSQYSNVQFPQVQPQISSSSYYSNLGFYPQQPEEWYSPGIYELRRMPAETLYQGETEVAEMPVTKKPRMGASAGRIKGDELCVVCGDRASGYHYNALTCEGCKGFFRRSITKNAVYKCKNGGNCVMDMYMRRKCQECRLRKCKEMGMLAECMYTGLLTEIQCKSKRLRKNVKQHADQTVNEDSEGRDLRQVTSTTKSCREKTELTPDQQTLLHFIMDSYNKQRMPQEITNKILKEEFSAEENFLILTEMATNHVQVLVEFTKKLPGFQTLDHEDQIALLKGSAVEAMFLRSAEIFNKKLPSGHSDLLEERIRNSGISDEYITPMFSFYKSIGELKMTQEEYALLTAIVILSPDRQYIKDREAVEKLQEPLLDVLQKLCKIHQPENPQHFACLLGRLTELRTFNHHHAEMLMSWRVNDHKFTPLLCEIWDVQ

[6] = target: T1, Peroxisome proliferator-activated receptor gamma; test: Displacement of fluormone pan-PPARgreen from GST-tagged human PPARgamma ligand binding domain by LanthaScreen TR-FRET competitive binding assay
[7] = target: T6, Peroxisome proliferator-activated receptor gamma (Homo sapiens) (UniProt P37231); test: Partial agonist activity at GST-tagged PPAR-gamma ligand binding domain (unknown origin) assessed as recruitment of fluorescein-labeled PRIP/RAP250 coactivator peptide at 10 uM by LanthaScreen TR-FRET Coactivator assay; conditions: filed as partial agonist
T6 sequence (whole entry): T1 sequence (P37231 whole entry)

[8] = target: T1, Peroxisome proliferator-activated receptor gamma; test: Partial agonist activity at GST-tagged PPAR-gamma ligand binding domain (unknown origin) assessed as recruitment of fluorescein-labeled SRC1 coactivator peptide by LanthaScreen TR-FRET Coactivator assay
[9] = target: T1, Peroxisome proliferator-activated receptor gamma; test: Partial agonist activity at GST-tagged PPAR-gamma ligand binding domain (unknown origin) assessed as recruitment of fluorescein-labeled SRC3 coactivator peptide by LanthaScreen TR-FRET Coactivator assay
[10] = target: T1, Peroxisome proliferator-activated receptor gamma; test: Partial agonist activity at GST-tagged PPAR-gamma ligand binding domain (unknown origin) assessed as recruitment of fluorescein-labeled PRIP/RAP250 coactivator peptide by LanthaScreen TR-FRET Coactivator assay
[11] = target: T6, Peroxisome proliferator-activated receptor gamma (Homo sapiens); test: Partial agonist activity at GST-tagged PPAR-gamma ligand binding domain (unknown origin) assessed as inhibition of pioglitazone-induced recruitment of fluorescein-labeled PRIP/RAP250 coactivator peptide at 10 uM in presence of pioglitazone by LanthaScreen TR-FRET Coactivator assay; conditions: filed as partial agonist
[12] = target: T1, Peroxisome proliferator-activated receptor gamma; test: Partial agonist activity at PPARgamma in human BMMSC cells assessed as promotion of adiponectin secretion by measuring increase in adiponectin level in presence of IDX medium by ELISA; assay type: cell-based
[13] = target: T6, Peroxisome proliferator-activated receptor gamma (Homo sapiens); test: Partial agonist activity at PPARgamma in human BMMSC cells assessed as increase in size and number of intracellular lipid droplets during adipocyte differentiation in presence of IDX medium at 10 uM by Oil Red O/hematoxylin staining based analysis; assay type: cell-based; conditions: filed as partial agonist

Row | Structure (SMILES) | Activity (Mesenchymal stem cells) | also measured
1 | COc1cc2ccc(=O)oc2c(OC)c1OC/C=C(\C)CCC=C(C)C [ALTISSIMACOUMARIN D] | Non-Toxic | EC50 [1]: > 30 µM
2 | C=C(C)C(CC/C(C)=C/COc1c(OC)cc2ccc(=O)oc2c1OC)OO (configuration not stated) | Non-Toxic | –
3 | COc1c2ccoc2cc2oc(=O)ccc12 [BERGAPTEN] | Non-Toxic | –
4 | COc1c2occc2cc2ccc(=O)oc12 [METHOXSALEN] | Non-Toxic | –
5 | COc1ccc(Cl)cc1C(=O)NCCc1ccc(S(=O)(=O)NC(=O)NC2CCCCC2)cc1 [GLYBURIDE] | – | EC50 [1]: 2.3 µM
6 | C=C[C@]1(C)C[C@H](OC(C)=O)[C@@H](C(C)(C)O)C[C@H]1C(=C)C | Non-Toxic | –
7 | COc1cc2ccc(=O)oc2cc1OC/C=C(\C)CCC=C(C)C | Non-Toxic | Activity [2]: inactive; Activity [3]: inactive; Activity [4]: inactive; Activity [5]: inactive; Ki [6]: 10.7 µM; Activity [7]: Active; EC50 [8]: > 30 µM; EC50 [9]: > 30 µM; EC50 [10]: 17.3 µM; Activity [11]: Active; EC50 [12]: 25.8 µM; Activity [13]: Active
8 | COc1ccc(-c2cc(=O)c3c(O)cccc3n2C)cc1 | Non-Toxic | –
9 | COc1c(CC=C(C)C)c(=O)n(C)c2ccccc12 | Non-Toxic | –
10 | COc1c(CC=C(C)C)c(=O)n(C)c2c(OC)cccc12 | Non-Toxic | –
11 | CC(C)=CCC/C(C)=C/COc1ccc2ccc(=O)oc2c1 | Non-Toxic | EC50 [1]: > 30 µM
12 | COc1c(CC=C(C)C)c(=O)[nH]c2c(OC)c(O)ccc12 | Non-Toxic | –
13 | COC(C)(C)/C=C/C/C(C)=C/COc1ccc2ccc(=O)oc2c1 | Non-Toxic | –
14 | COc1c(CC(=O)C(C)C)c(=O)n(C)c2ccccc12 | Non-Toxic | –
15 | C=C[C@]1(C)C[C@H](O)[C@@H](C(C)(C)O)C[C@H]1C(=C)C | Non-Toxic | –
16 | COc1c2c(cc3ccc(=O)oc13)C[C@@H](C(C)(C)OC(C)=O)O2 | Non-Toxic | –
17 | COc1ccc(-c2cc(=O)c3c(O)c(OC)ccc3n2C)cc1 | Non-Toxic | –
18 | COc1c(CC(=O)C(C)C)c(=O)n(C)c2c(OC)c(O)ccc12 | Non-Toxic | –
19 | C=C(C)C(O)CC/C(C)=C/COc1ccc2ccc(=O)oc2c1 (configuration not stated) | Non-Toxic | –
20 | CC(C)=CCOc1c2occc2cc2ccc(=O)oc12 [PENTOSALEN] | Non-Toxic | –
21 | O=c1ccc2cc3ccoc3cc2o1 [PSORALEN] | Non-Toxic | –
22 | COc1cc2ccc(=O)oc2c(OC)c1OC/C=C(\C)C/C=C/C(C)(C)OO | Non-Toxic | –
23 | CC(=O)[C@H]1CC[C@@H]2[C@@H]1[C@H](C(C)C)CC[C@]2(C)O | Non-Toxic | –
24 | Cn1c(-c2ccccc2)cc(=O)c2c(O)cccc21 | Non-Toxic | –
25 | COc1c(CC(=O)C(C)C)c(=O)[nH]c2c(OC)cccc12 | Non-Toxic | –
26 | C=C(C)C(O)COc1c2occc2cc2ccc(=O)oc12 (configuration not stated) | Non-Toxic | –
27 | COc1c2ccoc2c(OC)c2oc(=O)ccc12 [ISOPIMPINELLIN] | Non-Toxic | –
28 | COc1c(CC(=O)C(C)C)c(=O)n(C)c2c(OC)cccc12 [ORIXALONE A] | Non-Toxic | –
